Reference: patent publication US11608337B2, “Heterocyclic compounds as immunomodulators” (Incyte Corporation, priority 2016, dated 2023)
pIC50: −log10 of the molar value.

Molecular target: PD-1/PD-L1 protein/protein interaction (Homo sapiens (Human), UniProt Q9NZQ7)
Experiment: PD-1/PD-L1 Homogeneous Time-Resolved Fluorescence (HTRF) Binding Assay
Conditions: recombinant human PD-L1 (19-238) His-tag, human PD-1 (25-167) Fc tag; 25° C., PBS pH 7.4
Experimental: Example A. PD-1/PD-L1 Homogeneous Time-Resolved Fluorescence (HTRF) Binding Assay
The assays were conducted in a standard black 384-well polystyrene plate with a final volume of 20 μL. Inhibitors were first serially diluted in DMSO and then added to the plate wells before the addition of other reaction components. The final concentration of DMSO in the assay was 1%. The assays were carried out at 25° C. in the PBS buffer (pH 7.4) with 0.05% Tween-20 and 0.1% BSA. Recombinant human PD-L1 protein (19-238) with a His-tag at the C-terminus was purchased from AcroBiosystems (PD1-H5229). Recombinant human PD-1 protein (25-167) with Fc tag at the C-terminus was also purchased from AcroBiosystems (PD1-H5257). PD-L1 and PD-1 proteins were diluted in the assay buffer and 10 μL was added to the plate well. Plates were centrifuged and proteins were preincubated with inhibitors for 40 minutes. The incubation was followed by the addition of 10 μL of HTRF detection buffer supplemented with Europium cryptate-labeled anti-human IgG (PerkinElmer-AD0212) specific for Fc and anti-His antibody conjugated to SureLight®-Allophycocyanin (APC, PerkinElmer-AD0059H). After centrifugation, the plate was incubated at 25° C. for 60 min. before reading on a PHERAstar FS plate reader (665 nm/620 nm ratio). Final concentrations in the assay were […], 10 nM PD-L1, 1 nM europium anti-human IgG and 20 nM anti-His-Allophycocyanin. IC50 determination was performed by fitting the curve of percent control activity versus the log of the inhibitor concentration using the GraphPad Prism 5.0 software.
Data obtained for the Example compounds using the PD-1/PD-L homogenous time-resolved fluorescence (HTRF) binding assay described in Example A is provided in Table 1.

Sequence of PD-1/PD-L1 protein/protein interaction (Q9NZQ7 19-238): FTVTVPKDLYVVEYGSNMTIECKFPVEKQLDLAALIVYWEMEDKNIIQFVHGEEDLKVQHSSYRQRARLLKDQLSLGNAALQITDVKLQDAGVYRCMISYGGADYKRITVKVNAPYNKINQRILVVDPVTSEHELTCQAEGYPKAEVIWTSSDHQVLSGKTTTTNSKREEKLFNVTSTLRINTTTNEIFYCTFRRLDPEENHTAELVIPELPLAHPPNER

SMILES	pIC50
COc1cccc(-c2ccnc(-c3nc4c(s3)CNCC4)c2C)c1 [Example 15, 2-[4-(3-methoxyphenyl)-3-methylpyridin-2-yl]-4,5,6,7-tetrahydro[1,3]thiazolo[5,4-c]pyridine]	≥ 7.00
Cc1c(C2=CCCCC2)cccc1-c1nc2c(s1)CNCC2 [Example 32, 2-(3-cyclohex-1-en-1-yl-2-methylphenyl)-4,5,6,7-tetrahydro[1,3]thiazolo[5,4-c]pyridine]	≥ 7.00
Cc1c(-c2ccccc2)cccc1-c1nc2c(s1)CN(C1CCOCC1)CC2 [Example 6, 2-(2-methylbiphenyl-3-yl)-5-(tetrahydro-2H-pyran-4-yl)-4,5,6,7-tetrahydro[1,3]thiazolo[5,4-c]pyridine]	6.30 to 7.00
Cc1c(C2=CCOCC2)cccc1-c1nc2c(s1)CNCC2 [Example 29, 2-[3-(3,6-dihydro-2H-pyran-4-yl)-2-methylphenyl]-4,5,6,7-tetrahydro[1,3]thiazolo[5,4-c]pyridine]	5.00 to 6.30
Cc1c(-c2ccccc2)cccc1-c1nc2c(s1)CN(C1CCC(C(=O)O)CC1)CC2 (stereo not drawn) [Example 7, 4-[2-(2-methylbiphenyl-3-yl)-6,7-dihydro[1,3]thiazolo[5,4-c]pyridin-5(4H)-yl]cyclohexanecarboxylic acid]	≥ 7.00
Cc1c(-c2ccccc2)cccc1-c1nc2c(s1)CN(C[C@@H]1C[C@H]1C(=O)O)CC2 (relative stereo) [Example 9, Trans-2-{[2-(2-methylbiphenyl-3-yl)-6,7-dihydro[1,3]thiazolo[5,4-c]pyridin-5(4H)-yl]methyl}cyclopropanecarboxylic acid]	6.30 to 7.00
Cc1c(-c2ccccc2)cccc1-c1nc2c(s1)CN(C)CC2 [Example 3, 5-methyl-2-(2-methylbiphenyl-3-yl)-4,5,6,7-tetrahydro[1,3]thiazolo[5,4-c]pyridine]	≥ 7.00
COc1cc(-c2cccc(-c3nc4c(s3)CNCC4)c2C)ccn1 [Example 30, 2-[3-(2-methoxypyridin-4-yl)-2-methylphenyl]-4,5,6,7-tetrahydro[1,3]thiazolo[5,4-c]pyridine]	6.30 to 7.00
Cc1c(-c2ccccc2)cccc1-c1nc2c([nH]1)CCNC2 [Example 21, 2-(2-methylbiphenyl-3-yl)-4,5,6,7-tetrahydro-1H-imidazo[4,5-c]pyridine]	5.00 to 6.30
COc1cc(OC)c(F)c(-c2cccc(-c3nc4c(s3)CNCC4)c2C)c1F [Example 37, 2-(2′,6′-difluoro-3′,5′-dimethoxy-2-methylbiphenyl-3-yl)-4,5,6,7-tetrahydro[1,3]thiazolo[5,4-c]pyridine]	≥ 7.00
Cc1c(-c2ccccc2)ccnc1-c1nc2c(s1)CNCC2 [Example 14, 2-(3-methyl-4-phenylpyridin-2-yl)-4,5,6,7-tetrahydro[1,3]thiazolo[5,4-c]pyridine]	≥ 7.00
Cc1c(-c2ccccc2)cccc1-c1nc2c(o1)CNCC2 [Example 22, 2-(2-methylbiphenyl-3-yl)-4,5,6,7-tetrahydro[1,3]oxazolo[5,4-c]pyridine]	≥ 7.00
Cc1c(-c2cccc(C(N)=O)c2)cccc1-c1nc2c(s1)CNCC2 [Example 38, 2′-methyl-3′-(4,5,6,7-tetrahydro[1,3]thiazolo[5,4-c]pyridin-2-yl)biphenyl-3-carboxamide]	≥ 7.00
Cc1c(-c2ccccc2)cccc1-c1nc2c(o1)CCNC2 [Example 23, 2-(2-methylbiphenyl-3-yl)-4,5,6,7-tetrahydro[1,3]oxazolo[4,5-c]pyridine]	≥ 7.00
CCOc1cccc(-c2cccc(-c3nc4c(s3)CNCC4)c2C)c1 [Example 33, 2-(3′-ethoxy-2-methylbiphenyl-3-yl)-4,5,6,7-tetrahydro[1,3]thiazolo[5,4-c]pyridine]	≥ 7.00
Cc1c(-c2ccccc2)cccc1-c1nc2c(s1)CN(C[C@H](C)O)CC2 [Example 5, (2S)-1-[2-(2-methylbiphenyl-3-yl)-6,7-dihydro[1,3]thiazolo[5,4-c]pyridin-5(4H)-yl]propan-2-ol]	≥ 7.00
Cc1c(-c2ccccc2)cccc1-n1cc2c(n1)CCNC2 [Example 17, 2-(2-methylbiphenyl-3-yl)-4,5,6,7-tetrahydro-2H-pyrazolo[4,3-c]pyridine]	6.30 to 7.00
N#Cc1c(-c2ccc3c(c2)OCCO3)ccnc1-c1nc2c(s1)CNCC2 [Example 35, 4-(2,3-dihydro-1,4-benzodioxin-6-yl)-2-(4,5,6,7-tetrahydro[1,3]thiazolo[5,4-c]pyridin-2-yl)nicotinonitrile]	6.30 to 7.00
Cc1c(-c2ccccc2)cccc1-c1cc2n(n1)CCNC2 [Example 12, 2-(2-methylbiphenyl-3-yl)-4,5,6,7-tetrahydropyrazolo[1,5-a]pyrazine]	6.30 to 7.00
Cc1c(-c2ccccc2)cccc1-c1nc2c(s1)CNCC2(C)C [Example 19, 7,7-dimethyl-2-(2-methylbiphenyl-3-yl)-4,5,6,7-tetrahydro[1,3]thiazolo[5,4-c]pyridine]	5.00 to 6.30
Cc1c(-c2cccc(OCCO)c2)cccc1-c1nc2c(s1)CNCC2 [Example 36, 2-{[2′-methyl-3′-(4,5,6,7-tetrahydro[1,3]thiazolo[5,4-c]pyridin-2-yl)biphenyl-3-yl]oxy}ethanol]	6.30 to 7.00
Cc1c(-c2ccccc2)cccc1-c1nc2c(s1)CN(Cc1cn[nH]c1)CC2 [Example 10, 2-(2-methylbiphenyl-3-yl)-5-(1H-pyrazol-4-ylmethyl)-4,5,6,7-tetrahydro[1,3]thiazolo[5,4-c]pyridine]	6.30 to 7.00
Cc1c(-c2ccccc2)cccc1-c1nc2c(s1)CNCC2 [Example 2, 2-(2-methylbiphenyl-3-yl)-4,5,6,7-tetrahydro[1,3]thiazolo[5,4-c]pyridine]	≥ 7.00
Cc1c(-c2ccc3c(c2)OCCO3)ccnc1-c1nc2c(s1)CNCC2 [Example 16, 2-[4-(2,3-dihydro-1,4-benzodioxin-6-yl)-3-methylpyridin-2-yl]-4,5,6,7-tetrahydro[1,3]thiazolo[5,4-c]pyridine]	≥ 7.00
COc1cccc(-c2cccc(-c3nc4c(s3)CNCC4)c2C)c1 [Example 28, 2-(3′-methoxy-2-methylbiphenyl-3-yl)-4,5,6,7-tetrahydro[1,3]thiazolo[5,4-c]pyridine]	≥ 7.00
Cc1c(-c2cccc(CC(N)=O)c2)cccc1-c1nc2c(s1)CNCC2 [Example 39, 2-[2′-methyl-3′-(4,5,6,7-tetrahydro[1,3]thiazolo[5,4-c]pyridin-2-yl)biphenyl-3-yl]acetamide]	≥ 7.00
Cc1c(-c2ccccc2)cccc1-c1nc2n(n1)CCNC2 [Example 25, 2-(2-methylbiphenyl-3-yl)-5,6,7,8-tetrahydro[1,2,4]triazolo[1,5-a]pyrazine]	6.30 to 7.00
Cc1c(-c2nc3c(s2)CNCC3)cccc1-c1cccc2c1cnn2C [Example 40, 2-[2-methyl-3-(1-methyl-1H-indazol-4-yl)phenyl]-4,5,6,7-tetrahydro[1,3]thiazolo[5,4-c]pyridine]	≥ 7.00
N#Cc1c(-c2ccc3c(c2)OCCO3)cccc1-c1nc2c(s1)CNCC2 [Example 13, 2-(2,3-dihydro-1,4-benzodioxin-6-yl)-6-(4,5,6,7-tetrahydro[1,3]thiazolo[5,4-c]pyridin-2-yl)benzonitrile]	≥ 7.00
Cc1c(-c2ccccc2)cccc1-c1nc2c(o1)CCN(C)C2 [Example 24, 5-methyl-2-(2-methylbiphenyl-3-yl)-4,5,6,7-tetrahydro[1,3]oxazolo[4,5-c]pyridine]	≥ 7.00
